What is called inhibition is the share of the control response that was lost under treatment.

We go through 6 compounds from ChEMBL document CHEMBL2046308, “Thiol-reactive compounds from garlic inhibit the epithelial sodium channel (ENaC)” (Bioorg Med Chem, 2012).

Calls of active or inactive are those of the source. No cut-off for these calls is given here.

Assay [1] addresses T1, Amiloride-sensitive sodium channel, ENaC (Homo sapiens) (UniProt P37088+P51168+P51170). The assay can be described thus: Inhibition of human ENaC alpha-beta-gamma expressed in Xenopus laevis oocytes assessed as effect on transmembrane currents at 1 mM by two-electrode voltage-clamp technique. In kind it is cell-based. The settings on record: Oocyte. On the technique in general: Two-electrode voltage clamp is typically applied to oocytes expressing channels or transporters.

The target of assay [2] is T1, Amiloride-sensitive sodium channel, ENaC (Homo sapiens). As to the kind of experiment: Inhibition of human ENaC alpha-beta-gamma expressed in Xenopus laevis oocytes assessed as effect on transmembrane currents at 100 uM by two-electrode voltage-clamp technique. The following applies: Oocyte. In kind it is cell-based.

`C=CCSSCC=C`: the inhibition result in assay [1] was “inactive”.

For `C=CCSC[C@H](N)C(=O)O`, the inhibition entry in assay [1] is “inactive”.

For the compound `C=CC[S@+]([O-])C[C@H](N)C(=O)O`, in assay [1], the inhibition result was “inactive”.

In the case of `C=CCSSSCC=C`, the inhibition entry in assay [1] was “inactive”.

For the compound `C=CCS[S+]([O-])CC=C` (stereo unspecified), the inhibition in assay [2] came to 77%.

On to `C=CCSCC=C`, for which the inhibition result in assay [1] is “inactive”.
